Patent US20030018025A1, “Certain 4-aminomethyl-2-substituted imidazole derivatives and 2-aminomethyl-4-substituted imidazole derivatives: new classes of dopamine receptor subtype specific ligands” (Neurogen Corporation, Corporation of the State of Delaware, priority 1995, published 2003)
Where a name gives a salt, the structure may show the parent alone.

First: COc1ccc(Br)cc1-c1ncc(CN(C)C)[nH]1 (as salt: hydrochloride) [Compound 1, 2-(5-bromo-2-methoxyphenyl)-4(5)-[(N,N-dimethyl)aminomethyl]-imidazole dihydrochloride]
Second: COc1cc(Br)cc(-c2ncc(CN(C)C)[nH]2)c1OC (as salt: hydrochloride) [Compound 16, 2-(5-Bromo-2,3-dimethoxyphenyl)-4(5)-[(N,N-dimethyl)aminomethyl]-imidazole dihydrochloride]
The melting point of the first is higher: 242 to 243 °C for the first, 194 °C for the second.

Compared with `COc1cccc(-c2ncc(CN3CCC(c4ccccc4)CC3)[nH]2)c1` (as salt: hydrochloride) [Compound 50, 2-(3-Methoxyphenyl)-4(5)[(4-phenyl-piperidin-1-yl)-methyl]-imidazole dihydrochloride], `c1ccc(-c2ncc(CN3CCC(c4ccccc4)CC3)[nH]2)cc1` (as salt: hydrochloride) [Compound 26, 2-Phenyl-4(5)-[(4-phenyl-piperidin-1-yl)-methyl]-imidazole dihydrochloride] is higher in melting point: 114 to 117 °C for the first, 238 to 240 °C for the second.

First: c1ccc(-c2nc(-c3ccccc3)c(CN3CCN(c4ncccn4)CC3)[nH]2)cc1 [Compound 132, 2,5-diphenyl-4(5)-[(4-(2-pyrimidinyl)piperazin-1-yl)methyl]-imidazole]
Second: Ic1nc(-c2ccccc2)[nH]c1CN1CCN(c2ncccn2)CC1 (as salt: hydroiodid) [Compound 90, 2-phenyl-5-iodo-4(5)-[(4-(2-pyrimidinyl)piperazin-1-yl)methyl]-imidazole hydroiodide salt]
The melting point of the first is higher: 221 to 225 °C for the first, 196 to 199 °C for the second.

First: Fc1ccccc1-c1ncc(CN2CCC(c3ccccc3)CC2)[nH]1 (as salt: maleate) [Compound 52, 2-(2-Fluorophenyl)-4(5)[(4-phenyl-piperidin-1-yl)-methyl]-imidazole dimaleate]
Second: c1ccc(CC2CCN(Cc3cnc(-c4cccc5ccccc45)[nH]3)CC2)cc1 [Compound 92, 2-(1-naphthyl)-4(5)-[(4-benzyl-piperidin-1-yl)-methyl]imidazole]
The melting point of the first is higher: 142 to 144 °C for the first, 81 to 83 °C for the second.

Compared with `COc1ccc(-c2nc(CN3CCC(c4ccccc4)CC3)c[nH]2)cc1` (as salt: hydrochloride) [Compound 47, 2-(4-Methoxyphenyl) -4(5)[(4-phenyl-piperidin-1-yl)-methyl]-imidazole dihydrochloride], `COc1ccccc1N1CCN(Cc2cnc(-c3ccc(F)cc3)[nH]2)CC1` [Compound 20, 2-(4-Fluorophenyl)-4(5)-[(4-(2-methoxyphenyl)-piperazin-1-yl)-methyl]-imidazole] is lower in melting point: 196 to 199 °C for the first, 95 to 97 °C for the second.

Compared with `O=C(c1cnc(-c2ccccc2)[nH]1)N1CCN(c2ncccn2)CC1` [Compound 144, 2-phenyl-4(5)-N-[(4-(2-pyrimidinyl)piperazin-1-yl)-carboxamido]-imidazole], `O=C(/C=C/c1cnc(-c2ccccc2)[nH]1)N1CCN(c2ncccn2)CC1` [Compound 119, 2-phenyl-4(5)-[(4-(2-pyrimidinyl)-piperazin-1-yl)-propen-1-oyl]-imidazole] is higher in melting point: 231 to 232 °C for the first, 235 to 236 °C for the second.

First: Cc1ccc(-c2ncc(CN3CCN(c4ncccn4)CC3)[nH]2)cc1 [Compound 133]
Second: c1ccc(-c2ncc(CCN3CCN(c4ncccn4)CC3)[nH]2)cc1 [Compound 143, 2-phenyl-4(5)-[(4-(2-pyrimidinyl)-piperazin-1-yl)-ethan-1-yl]-imidazole]
The melting point of the first is higher: 178 to 180 °C for the first, 142 to 144 °C for the second.

First: CC(c1cnc(-c2ccccc2)[nH]1)N1CCC(Cc2ccccc2)CC1 (stereo not drawn) (as salt: hydrochloride) [Compound 91, 2-phenyl-4(5)-[1-((4-benzyl-piperidin-1-yl)-ethan-1-yl)]imidazole dihydrochloride salt]
Second: c1ccc(CC2CCN(Cc3ncc(-c4ccccc4)[nH]3)CC2)cc1 (as salt: fumarate) [Compound 77, 4-phenyl-2(5)-[(4-benzylpiperidin-1-yl)-methyl]imidazole]
The melting point of the first is higher: 169 to 171 °C for the first, 155 to 157 °C for the second.

First: c1ccc(-c2ncc(CCCN3CCN(c4ncccn4)CC3)[nH]2)cc1 [Compound 125, 2-phenyl-4(5)-[(4-(2-pyrimidinyl)-piperazin-1-yl)-propan-1-yl]-imidazole]
Second: O=C(CCc1cnc(-c2ccccc2)[nH]1)N1CCN(c2ncccn2)CC1 [Compound 122, 2-phenyl-4(5)-[(4-(2-pyrimidinyl)-piperazin-1-yl)-propan-1-oyl]-imidazole]
The melting point of the first is lower: 133 to 135 °C for the first, 143 to 148 °C for the second.

First: CCc1ccc(OC)c(-c2ncc(CN3CCN(c4ccccc4OC)CC3)[nH]2)c1 (as salt: hydrochloride) [Compound 55, 2-(5-Ethyl-2-methoxyphenyl-4(5)-[(4-(2-methoxyphenyl)-piperazin-1-yl)-methyl]-imidazoledihydrochloride]
Second: COc1ccc(Cl)cc1-c1ncc(CN2CCN(c3ccccc3OC)CC2)[nH]1 (as salt: hydrochloride) [Compound 43, 2-(5-Chloro-2-methoxyphenyl)-4(5)-[(4-(2-methoxyphenyl)-piperazin-1-yl)-methyl]-imidazole dihydrochloride]
The melting point of the first is lower: 61 to 64 °C for the first, 138 to 143 °C for the second.

First: COc1ccccc1N1CCN(Cc2cnc(-c3ccccc3)[nH]2)CC1 [Compound 19, 2-phenyl-4-(5)-[(4-(2-methoxyphenyl)-piperazin-1-yl)-methyl]imidazole]
Second: Cc1ccc(Cl)cc1N1CCN(Cc2cnc(-c3ccccc3)[nH]2)CC1 (as salt: hydrochloride) [Compound 60, 2-Phenyl-4(5)-[(4(5-chloro-2-methylphenyl)-piperazin-1yl-)-methyl]imidazole dihydrochloride]
The melting point of the first is lower: 105 to 107 °C for the first, 142 to 145 °C for the second.

Compared with `c1cnc(N2CCN(Cc3cnc(C4CCCCC4)[nH]3)CC2)nc1` [Compound 128, 2-cyclohexyl-4(5)-[(4-(2-pyrimidinyl)-piperizin-1-yl)-methyl]-imidazole], `O=C(c1ccccc1)c1ncc(CN2CCN(c3ncccn3)CC2)[nH]1` [Compound 116, 2-(benzoyl)-4(5)-[(4-(2-pyrimidinyl)-piperazin-1-yl)-methyl]-imidazole] is lower in melting point: 210 to 213 °C for the first, 177 to 179 °C for the second.

First: Fc1ccc(N2CCN(Cc3cnc(-c4ccccc4)[nH]3)CC2)cc1 (as salt: hydrochloride) [Compound 56, 2-Phenyl-4(5)-[(4-(4-fluorophenyl)-piperazin-1-yl-)methyl]imidazole dihydrochloride]
Second: Clc1ccc(N2CCN(Cc3cnc(-c4ccccc4)[nH]3)CC2)cc1Cl [Compound 61, 2-Phenyl-4(5)-[(4(3,4-dichlorophenyl)-piperazin-1-yl-)methyl]imidazole]
The melting point of the first is lower: 64 to 68 °C for the first, 179 to 181 °C for the second.

First: C[C@@H]1CN(c2ncccn2)C[C@H](C)N1Cc1cnc(-c2ccccc2)[nH]1 [Compound 140, 2-phenyl-4(5)-[(4-(2-pyrimidinyl)-cis-2,6-dimethylpiperazin-1-yl)-methyl]-imidazole]
Second: Fc1ccnc(N2CCN(Cc3cnc(-c4ccccc4)[nH]3)CC2)n1 (as salt: hydrochloride) [Compound 58, 2-Phenyl-4(5)-[(4-(4-fluoro-2-pyrimidinyl)-piperazin-1yl)-methyl]imidazole dihydrochloride]
The melting point of the first is lower: 130 to 135 °C for the first, 188 to 190 °C for the second.

First: COc1ccccc1N1CCN(Cc2cnc(-c3cccc(OC)c3OC)[nH]2)CC1 (as salt: hydrochloride) [Compound 21, 2-(2,3-Dimethoxyphenyl)-4(5)-[(4-(2-methoxyphenyl)-piperazin-1-yl)-methyl]-imidazole dihydrochloride]
Second: c1ccc(CC2CCN(CC3CCCc4[nH]c(-c5ccccc5)nc43)CC2)cc1 (stereo not drawn) [Compound 138, 2-phenyl-7-[(4-benzyl-piperidin-1-yl)-methyl]-4,5,6,7-tetrahydrobenzimidazole]
The melting point of the first is higher: 217 to 218 °C for the first, 189 to 191 °C for the second.
